Results as given in PMC12573178, “Substrate-Guided Development of HDAC11-Selective Inhibitors Featuring α‑Amino Amide Zinc-Binding Groups” (ACS Omega, 2025).

Molecular target: T1, SIRT3 (Homo sapiens, UniProt Q9NTG7)
T1 sequence (Q9NTG7 1-399): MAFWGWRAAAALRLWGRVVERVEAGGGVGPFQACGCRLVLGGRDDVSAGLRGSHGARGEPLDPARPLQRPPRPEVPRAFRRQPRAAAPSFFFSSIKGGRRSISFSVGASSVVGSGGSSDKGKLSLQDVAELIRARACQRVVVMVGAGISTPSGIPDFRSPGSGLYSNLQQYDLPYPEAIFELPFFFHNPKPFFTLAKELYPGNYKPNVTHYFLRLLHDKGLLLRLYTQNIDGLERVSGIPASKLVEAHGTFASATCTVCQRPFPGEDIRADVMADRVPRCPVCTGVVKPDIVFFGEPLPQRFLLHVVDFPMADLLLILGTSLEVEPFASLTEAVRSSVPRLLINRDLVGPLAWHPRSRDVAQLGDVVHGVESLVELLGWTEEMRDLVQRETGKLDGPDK
Assay: SIRT3 discontinuous demyristoylation inhibition assay
Type: biochemical
Protocol: Inhibition of the enzymatic activity of HDACs was performed continuously for HDAC8, HDAC11, and SIRT2 and discontinuously for SIRT2, 3, and 6 using adequate substrates as described previously. , Experimental details are given in the Supporting Information.
A. HDAC and SIRT deacylase activity assays […]
140 mM NaCl, 10 mM MgCl 2, 1 mM tris(2-carboxyethyl)phosphine (TCEP), and 0.2 mg/ml BSA, pH 7.4 adjusted with NaOH), HDAC11 buffer (20 mM HEPES, 70 µM TCEP and 2 mg/ml BSA, pH 7.4 adjusted with NaOH) or SIRT buffer (20 mM Tris, 150 mM NaCl, 5 mM MgCl2 and 2 mg/ml BSA pH 7.8 adjusted with HCl), respectively. The thiotrifluoracetylated substrate Abz-SRGGK(thio-TFA)FFRR-NH2 (50 µM) […]
Aun is N-(2-aminobenzoyl)-11-aminoundecanoyl, was used for HDAC11 and Ac-EALPKK(Myr)T-C(Fluorescein)-G-NH2 (40 nM) was used for SIRT2 1-3. […]
(substrate, DMSO, and Buffer) controls were included in every measurement and were set as 100% and 0%, respectively. The measured values were normalized accordingly. […]
Reactions were stopped after 20 min by adding a constant volume of reaction mixture to stop solution (5 % acetonitrile (ACN) (v/v) and 1 % trifluoroacetic acid (TFA) (v/v) in dd. H 2O). The samples were analysed using HPLC-UV/VIS at λ Abs = 220 nm, λ Ex = 320 nm und λ Em = 420 nm. […]
100 nM, SIRT3: 200 nM, SIRT6: 500 nM). […] The samples were analysed using HPLC-UV/VIS at λ Abs = 360 nm. […]

IC50: > 100 µM | inhibition at 50 µM (50 μM 31): 1.6%
Compound: CCCCCCCCCCCCSC[C@@H](N)C(=O)NCCCC[C@@H]1NC(=O)[C@H](CCC(N)=O)NC1=O [Compound 31]
